The values below come from patent publication US9499538B2, “Estrogen receptor modulators and uses thereof” (Seragon Pharmaceuticals, Inc., priority 2012, dated 2016).

The test system of one test is MCF-7 cells. The test is described as follows: Breast Cancer Cell Viability Assays (MCF-7, CellTiter-Glo). Particulars: 5 days' compound exposure; for IC50: Homo sapiens, MCF7, 120 h. The test is classed as cell-based. Summed up:
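MCF-7 cells (320/well, RPMI with 10% FBS) exposed for 5 days to an eleven-point semilog series, 0.3–0.000003 μM final. Viability read by CellTiter-Glo luminescence, expressed as background-corrected percent of untreated cells.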
Background: In ATP-based viability assays light output follows the ATP content of the culture.

Another test has as its target T1, ER-α in MCF-7 cells (Homo sapiens, UniProt P03372).
T1 construct: endogenous in cells; host or cells: MCF-7
T1 sequence (P03372 1-595): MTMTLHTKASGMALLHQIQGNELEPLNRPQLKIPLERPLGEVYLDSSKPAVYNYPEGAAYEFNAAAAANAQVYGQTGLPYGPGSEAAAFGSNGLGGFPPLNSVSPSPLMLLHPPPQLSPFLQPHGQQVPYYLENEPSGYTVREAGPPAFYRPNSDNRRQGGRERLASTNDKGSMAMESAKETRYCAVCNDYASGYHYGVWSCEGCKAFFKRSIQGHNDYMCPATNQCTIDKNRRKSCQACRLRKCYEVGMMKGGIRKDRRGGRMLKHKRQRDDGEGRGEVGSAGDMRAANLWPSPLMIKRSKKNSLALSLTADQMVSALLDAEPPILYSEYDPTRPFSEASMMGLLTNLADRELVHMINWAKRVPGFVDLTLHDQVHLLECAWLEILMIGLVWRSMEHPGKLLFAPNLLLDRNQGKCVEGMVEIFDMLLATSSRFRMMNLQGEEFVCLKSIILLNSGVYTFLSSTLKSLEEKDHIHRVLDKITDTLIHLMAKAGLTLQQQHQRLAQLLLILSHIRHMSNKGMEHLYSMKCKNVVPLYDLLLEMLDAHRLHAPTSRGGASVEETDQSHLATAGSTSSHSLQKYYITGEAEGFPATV
In words: Breast Cancer Cell ER-α In Cell Western Assay (SP1). The test is classed as cell-based. As to conditions: 4 or 24 hr post compound addition; for Emax: MCF7, SP1 antibody, read-out: ER-α In Cell Western Assay (SP1) Max Response; for DC50: SP1 antibody, read-out: ER-α In Cell Western Assay (SP1) IC50. Summed up:
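MCF-7 cells in charcoal-stripped FBS medium, treated with 11-point semilog dilutions (0.3–0.000003 μM final) for 4 or 24 h. Fixed cells immunostained with SP1 antibody (800 nm) and DRAQ5 DNA (700 nm); ER/DNA ratio expressed as % of untreated cells.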

SMILES strings stand for the structures.

With `O=C(/C=C/c1ccc(/C(=C(\c2ccc(F)cc2Cl)C2CCC2)c2ccc3nccn3c2)cc1)NCCO` [Example 187, (E)-3-(4-((E)-2-(2-Chloro-4-fluorophenyl)-2-cyclobutyl-1-(imidazo[1,2-a]pyridin-6-yl)vinyl)phenyl)-N-(2-hydroxyethyl)acrylamide], in the test on MCF-7 cells, the “MCF7 Viability Assay Max Response” value was “++ (++ = a single % value ≧ 40%)” and the half-maximal inhibitory concentration (IC50) (usually the concentration needed to halve the response being measured) was at most 100 nM. Moreover, at ER-α in MCF-7 cells, the Emax is at least 40% and the DC50 is at most 100 nM.

With `O=C(/C=C/c1ccc(/C(=C(\c2ccccc2)C2CCC2)c2ccc3[nH]nc(F)c3c2)cc1)NCC(O)CO` (stereo not drawn) [Example 188, (E)-3-(4-((E)-2-Cyclobutyl-1-(3-fluoro-1H-indazol-5-yl)-2-phenylvinyl)phenyl)-N-(2,3-dihydroxypropyl)acrylamide], in the test on MCF-7 cells, the “MCF7 Viability Assay Max Response” value was “++ (++ = a single % value ≧ 40%)” and the IC50 is at most 100 nM. Further, on ER-α in MCF-7 cells, the Emax was at least 40% and the DC50 was at most 100 nM.

With `O=C(/C=C/c1ccc(/C(=C(\c2ccccc2)C2CCC2)c2ccc3[nH]nc(F)c3c2)cc1)NC(CO)CO` [Example 189, (E)-3-(4-((E)-2-Cyclobutyl-1-(3-fluoro-1H-indazol-5-yl)-2-phenylvinyl)phenyl)-N-(1,3-dihydroxypropan-2-yl)acrylamide], in the test with MCF-7 cells, the “MCF7 Viability Assay Max Response” value is recorded as “++ (++ = a single % value ≧ 40%)” and the IC50 is at most 100 nM. In addition, at ER-α in MCF-7 cells, the Emax is at least 40% and the DC50 is at most 100 nM.

On to `CNC(=O)/C=C/c1ccc(/C(=C(\c2ccccc2)C2CCC2)c2ccc3[nH]nc(F)c3c2)cc1` [Example 190, (E)-3-(4-((E)-2-Cyclobutyl-1-(3-fluoro-1H-indazol-5-yl)-2-phenylvinyl)phenyl)-N-methylacrylamide], for which, in the test with MCF-7 cells, the “MCF7 Viability Assay Max Response” value was “++ (++ = a single % value ≧ 40%)” and the IC50 is at most 100 nM. Further, on ER-α in MCF-7 cells, the Emax was at least 40% and the DC50 is at most 100 nM.

Consider `O=C(/C=C/c1ccc(/C(=C(\c2ccccc2)C2CCC2)c2ccc3[nH]nc(F)c3c2)cc1)NCCCl` [Example 191, (E)-N-(2-Chloroethyl)-3-(4-((E)-2-cyclobutyl-1-(3-fluoro-1H-indazol-5-yl)-2-phenylvinyl)phenyl)acrylamide], for which, in the test with MCF-7 cells, the “MCF7 Viability Assay Max Response” value is “++ (++ = a single % value ≧ 40%)” and the IC50 was at most 100 nM. For the same molecule, at ER-α in MCF-7 cells, the Emax is at least 40% and the DC50 was at most 100 nM.

Consider `OCC1CN=C(/C=C/c2ccc(/C(=C(\c3ccccc3)C3CCC3)c3ccc4[nH]nc(F)c4c3)cc2)O1` (stereo not drawn) [Example 192, (2-((E)-4-((E)-2-Cyclobutyl-1-(3-fluoro-1H-indazol-5-yl)-2-phenylvinyl)styryl)-4,5-dihydrooxazol-5-yl)methanol], for which, in the test with MCF-7 cells, the “MCF7 Viability Assay Max Response” value is on record as “++ (++ = a single % value ≧ 40%)” and the IC50 is at most 100 nM. Further, on ER-α in MCF-7 cells, the Emax was at least 40% and the DC50 was at most 100 nM.

Turning to `CS(=O)(=O)c1ccccc1/C(=C(\c1ccc(/C=C/C(=O)O)cc1)c1ccc2[nH]nc(F)c2c1)C1CC1` [Example 193, (E)-3-(4-((E)-2-Cyclopropyl-1-(3-fluoro-1H-indazol-5-yl)-2-(2-(methylsulfonyl)phenyl)vinyl)phenyl)acrylic acid], in the test on MCF-7 cells, the “MCF7 Viability Assay Max Response” value was “++ (++ = a single % value ≧ 40%)” and the IC50 was at most 100 nM. Besides, on ER-α in MCF-7 cells, the Emax is at least 40% and the DC50 was at most 100 nM.

With `CS(=O)(=O)c1ccccc1/C(=C(\c1ccc(/C=C/C(=O)O)cc1)c1ccc2[nH]nc(F)c2c1)C1CCC1` [Example 194, (E)-3-(4-((E)-2-Cyclobutyl-1-(3-fluoro-1H-indazol-5-yl)-2-(2-(methylsulfonyl)phenyl)vinyl)phenyl)acrylic acid], in the test on MCF-7 cells, the “MCF7 Viability Assay Max Response” value was “++ (++ = a single % value ≧ 40%)” and the IC50 was at most 100 nM. In addition, on ER-α in MCF-7 cells, the Emax is at least 40% and the DC50 was at most 100 nM.

As for `Cc1cc(S(C)(=O)=O)ccc1/C(=C(\c1ccc(/C=C/C(=O)O)cc1)c1ccc2[nH]nc(F)c2c1)C1CCC1` [Example 195, (E)-3-(4-((E)-2-Cyclobutyl-1-(3-fluoro-1H-indazol-5-yl)-2-(2-methyl-4-(methylsulfonyl)phenyl)vinyl)phenyl)acrylic acid], in the test with MCF-7 cells, the “MCF7 Viability Assay Max Response” value is listed as “++ (++ = a single % value ≧ 40%)” and the IC50 was at most 100 nM. Further, on ER-α in MCF-7 cells, the Emax is at least 40% and the DC50 is at most 100 nM.

Turning to `CS(=O)(=O)c1ccc(/C(=C(\c2ccc(/C=C/C(=O)O)cc2)c2ccc3[nH]nc(F)c3c2)C2CCC2)c(Cl)c1` [Example 196, (E)-3-(4-((E)-2-(2-Chloro-4-(methylsulfonyl)phenyl)-2-cyclobutyl-1-(3-fluoro-1H-indazol-5-yl)vinyl)phenyl)acrylic acid], in the test with MCF-7 cells, the “MCF7 Viability Assay Max Response” value was “++ (++ = a single % value ≧ 40%)” and the IC50 is at most 100 nM. For the same molecule, at ER-α in MCF-7 cells, the Emax was at least 40% and the DC50 is at most 100 nM.

Consider `CS(=O)(=O)c1ccccc1/C(=C(\c1ccc(/C=C/C(=O)O)cc1)c1ccc2scnc2c1)C1CCC1` [Example 197, (E)-3-(4-((E)-1-(Benzo[d]thiazol-5-yl)-2-cyclobutyl-2-(2-(methylsulfonyl)phenyl)vinyl)phenyl)acrylic acid], for which, in the test with MCF-7 cells, the “MCF7 Viability Assay Max Response” value is recorded as “++ (++ = a single % value ≧ 40%)” and the IC50 was at most 100 nM. In addition, at ER-α in MCF-7 cells, the Emax was at least 40% and the DC50 is at most 100 nM.

In the case of `Cc1cc([S+](C)[O-])ccc1/C(=C(\c1ccc(/C=C/C(=O)O)cc1)c1ccc2[nH]nc(F)c2c1)C1CCC1` (stereo not drawn) [Example 198], in the test on MCF-7 cells, the “MCF7 Viability Assay Max Response” value is recorded as “++ (++ = a single % value ≧ 40%)” and the IC50 was at most 100 nM. Also, on ER-α in MCF-7 cells, the Emax was at least 40% and the DC50 was at most 100 nM.

As to `CC/C(=C(/c1ccc(/C=C/C(=O)O)cc1)c1ccc2c(cnn2CCO)c1)c1ccc(F)cc1Cl` [Example 199, (E)-3-(4-((E)-2-(2-Chloro-4-fluorophenyl)-1-(1-(2-hydroxyethyl)-1H-indazol-5-yl)but-1-en-1-yl)phenyl)acrylic acid], in the test with MCF-7 cells, the “MCF7 Viability Assay Max Response” value is recorded as “++ (++ = a single % value ≧ 40%)” and the IC50 was at most 100 nM. At ER-α in MCF-7 cells, the Emax was at least 40% and the DC50 was at most 100 nM.

Take `CC/C(=C(/c1ccc(/C=C/C(=O)O)cc1)c1ccc2nn(CCO)cc2c1)c1ccc(F)cc1Cl` [Example 200, (E)-3-(4-((E)-2-(2-Chloro-4-fluorophenyl)-1-(2-(2-hydroxyethyl)-2H-indazol-5-yl)but-1-en-1-yl)phenyl)acrylic acid]: in the test with MCF-7 cells, the “MCF7 Viability Assay Max Response” value is “++ (++ = a single % value ≧ 40%)” and the IC50 is over 100 nM. On ER-α in MCF-7 cells, the Emax was at least 40% and the DC50 is at most 100 nM.

In the case of `O=C(O)/C=C/c1ccc(/C(=C(\c2ccccc2)C2CCC2)c2ccc3c(c2)c(F)nn3CCO)cc1` [Example 201, (E)-3-(4-((E)-2-Cyclobutyl-1-(3-fluoro-1-(2-hydroxyethyl)-1H-indazol-5-yl)-2-phenylvinyl)phenyl)acrylic acid], in the test with MCF-7 cells, the “MCF7 Viability Assay Max Response” value is recorded as “++ (++ = a single % value ≧ 40%)” and the IC50 is over 100 nM. On ER-α in MCF-7 cells, the Emax is at least 40% and the DC50 was at most 100 nM.

On to `O=c1[nH]c(/C=C/c2ccc(/C(=C(\c3ccccc3)C3CCC3)c3ccc4[nH]nc(F)c4c3)cc2)no1` [Example 202, 3-((E)-4-((E)-2-Cyclobutyl-1-(3-fluoro-1H-indazol-5-yl)-2-phenylvinyl)styryl)-1,2,4-oxadiazol-5(4H)-one], for which, in the test with MCF-7 cells, the “MCF7 Viability Assay Max Response” value is given as “++ (++ = a single % value ≧ 40%)” and the IC50 was at most 100 nM. Besides, at ER-α in MCF-7 cells, the Emax is at least 40% and the DC50 is at most 100 nM.

As for `NNC(=O)/C=C/c1ccc(/C(=C(\c2ccccc2)C2CCC2)c2ccc3[nH]nc(F)c3c2)cc1` [Example 203, (E)-3-(4-((E)-2-Cyclobutyl-1-(3-fluoro-1H-indazol-5-yl)-2-phenylvinyl)phenyl)acrylohydrazide], in the test with MCF-7 cells, the “MCF7 Viability Assay Max Response” value is on record as “++ (++ = a single % value ≧ 40%)” and the IC50 is at most 100 nM. Besides, on ER-α in MCF-7 cells, the Emax is at least 40% and the DC50 was at most 100 nM.

As to `Fc1n[nH]c2ccc(/C(=C(/c3ccccc3)C3CCC3)c3ccc(/C=C/c4cccnc4)cc3)cc12` [Example 205, 5-((E)-2-Cyclobutyl-2-phenyl-1-(4-((E)-2-(pyridin-3-yl)vinyl)phenyl)vinyl)-3-fluoro-1H-indazole], in the test on MCF-7 cells, the “MCF7 Viability Assay Max Response” value is listed as “+ (+ = a single % value < 40%)” and the IC50 is over 100 nM. Besides, at ER-α in MCF-7 cells, the Emax was at least 40% and the DC50 is at most 100 nM.
